Experimental data: article PMC6337627 (Molecules, 2019)
Several values for one entry are separate records, joined by “and”; a condition that tells them apart may be missing. Equal entries are not always repeated. Starred links: 1 amine or outer side, 2 acyl side, 3 side chain; linkers in the order of their positions; H or OH if unused. Non-standard residues stand in square brackets, D forms with d. Residues, ends and D or L forms follow the SMILES beside them. ξ: configuration not given here. Suc = O=C(CCC(=O)[*:2])[*:1]; Nphe = O=C(O)CNCc1ccccc1; ξF = NC(Cc1ccccc1)C(=O)O; Ava = NCCCCC(=O)O; GABA = NCCCC(=O)O; βAla = NCCC(=O)O

Key:
[1] = target: acetylcholinesterase (AChE) (Electrophorus electricus, UniProt O42275); assay: biochemical; conditions: for IC50: AChE from Electrophorus electricus, substrate acetylthiocholine, 30 min pre-incubation, mean ± SEM of triplicate independent experiments; for Selectivity: AChE versus BuChE (values fit IC50 BuChE / IC50 AChE)
Sequence of acetylcholinesterase (AChE) (O42275 24-633): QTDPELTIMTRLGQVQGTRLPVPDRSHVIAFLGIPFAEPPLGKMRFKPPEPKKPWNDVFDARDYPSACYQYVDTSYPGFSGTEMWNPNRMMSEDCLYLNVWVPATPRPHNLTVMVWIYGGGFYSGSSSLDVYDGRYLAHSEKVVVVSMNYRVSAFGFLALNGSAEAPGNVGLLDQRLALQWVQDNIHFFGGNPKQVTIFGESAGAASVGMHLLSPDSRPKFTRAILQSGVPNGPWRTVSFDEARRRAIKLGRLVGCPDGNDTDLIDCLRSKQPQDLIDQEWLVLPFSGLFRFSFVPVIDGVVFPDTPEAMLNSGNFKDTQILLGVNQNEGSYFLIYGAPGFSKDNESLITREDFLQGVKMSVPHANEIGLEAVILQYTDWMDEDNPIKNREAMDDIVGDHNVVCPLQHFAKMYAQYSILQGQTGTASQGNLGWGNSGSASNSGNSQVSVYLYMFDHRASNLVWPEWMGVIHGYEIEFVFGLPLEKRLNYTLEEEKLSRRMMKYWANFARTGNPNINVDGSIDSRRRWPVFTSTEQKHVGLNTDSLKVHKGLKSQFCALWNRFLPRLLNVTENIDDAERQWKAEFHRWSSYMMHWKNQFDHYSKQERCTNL

[2] = target: T1, butyrylcholinesterase (BuChE) (Equus caballus, UniProt P81908); assay: biochemical; conditions: BuChE from equine serum, substrate butyrylthiocholine, 30 min pre-incubation, mean ± SEM of triplicate independent experiments
T1 construct: from Electrophorus electricus and equine serum; from tissue; host or cells: equine serum
T1 sequence (P81908 whole entry): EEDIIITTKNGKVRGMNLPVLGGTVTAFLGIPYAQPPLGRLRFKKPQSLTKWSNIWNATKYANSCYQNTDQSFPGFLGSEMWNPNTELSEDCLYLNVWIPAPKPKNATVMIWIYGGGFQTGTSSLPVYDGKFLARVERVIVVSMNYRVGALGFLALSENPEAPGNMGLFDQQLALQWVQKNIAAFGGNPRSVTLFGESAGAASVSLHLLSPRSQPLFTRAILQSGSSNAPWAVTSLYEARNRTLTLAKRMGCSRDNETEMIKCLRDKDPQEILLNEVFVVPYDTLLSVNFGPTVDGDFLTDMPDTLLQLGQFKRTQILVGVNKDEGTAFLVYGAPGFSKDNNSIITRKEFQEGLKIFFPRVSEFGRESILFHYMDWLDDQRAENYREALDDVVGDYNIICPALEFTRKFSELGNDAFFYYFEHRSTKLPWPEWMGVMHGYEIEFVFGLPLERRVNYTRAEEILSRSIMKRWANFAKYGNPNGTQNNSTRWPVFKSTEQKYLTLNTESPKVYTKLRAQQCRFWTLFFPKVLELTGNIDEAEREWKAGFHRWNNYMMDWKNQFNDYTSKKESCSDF

[3] = target: AChE (Electrophorus electricus, UniProt O42275); assay: Kinetic study of AChE inhibition (Michaelis-Menten, Lineweaver-Burk); type: biochemical; conditions: Lineweaver-Burk plots, variation in Km and Vmax
Sequence of AChE (O42275 24-633): as the sequence (O42275 24-633) above
Description: For this purpose, the rate of enzyme activity was measured at eight different concentrations of substrate ATC.
The assays were carried out in a total volume of 200 μL per well containing AChE from Electrophorus electricus (0.20 unit/mL) in PBS, the synthesized compound in DMSO, PBS at IC50, 2× IC50 concentration, and substrate solution. The general procedure was as follows: AChE and the synthesized compounds 7a to IC50 and twice concentrations in PBS were mixed and incubated at rt for 30 min. After incubation, substrate from 3.8 × 10^−3–0.48 mM was added into the mixture. The reaction was recorded for 10 min measuring the absorbance at 405 nm using a Microtiter plate reader (Multiskan EX, Thermo). Data were plotted using GraphPad Prism v4.03 software (GraphPad Software Inc., San Diego, CA, USA) to obtain the Michaelis–Menten constant (Km) and maximal velocity (Vmax) values. Km values were expressed in μM and Vmax as mol/min/mg protein and correspond to the mean ± SD of three independent assays in triplicate.
Figure 1 The Lineweaver–Burk plot of AChE (0.02 U) with an acetylthiocholine substrate in the absence and presence of inhibitor 7a.

Compound | IC50 [1] | Selectivity [1] | IC50 [2] | kinetic mode of AChE inhibition [3]
O=C(O)CCCN(CC(=O)NC(Cc1ccccc1)C(=O)O)C(=O)c1ccccc1 (stereo not shown) [6d] | 10.6 ± 1.5 µM | 28.36 | 302 ± 5.8 µM | 
O=C(O)CCC(=O)N(CC(=O)NC(Cc1ccccc1)C(=O)O)Cc1ccccc1 (stereo not shown) [6e, 2,6-Dibenzyl-4,7-dioxo-3,6-diazadecanedioic acid] (Suc-[Nphe]-[ξF]-OH) | 305 ± 5.7 µM | 0.45 | 135 µM and 136 µM | 
NCCCC(=O)N(CC(=O)NC(Cc1ccccc1)C(=O)O)Cc1ccccc1 (stereo not shown) [7a, 10-Amino-2,6-dibenzyl-4,7-dioxo-3,6-diazadecanoic acid] (H-[GABA]-[Nphe]-[ξF]-OH) | 3.67 ± 0.8 µM | 66.44 | 244 ± 4.6 µM | mixed-type inhibition
NCCC(=O)N(CC(=O)NC(Cc1ccccc1)C(=O)O)Cc1ccccc1 (stereo not shown) [7b, 9-Amino-2,6-dibenzyl-4,7-dioxo-3,6-diazanonanoic acid] (H-[βAla]-[Nphe]-[ξF]-OH) | 41.3 ± 2.3 µM | 11.17 | 461 ± 6.2 µM | 
NCCCCC(=O)N(CC(=O)NC(Cc1ccccc1)C(=O)O)Cc1ccccc1 (stereo not shown) [7c, 11-Amino-2,6-dibenzyl-4,7-dioxo-3,6-diazaundecanoic acid] (H-[Ava]-[Nphe]-[ξF]-OH) | 12.6 ± 1.6 µM | 50.69 | 636.7 ± 3.7 µM | 
